# Laboratory results from ChEMBL document CHEMBL3885881, “DrugMatrix”.
# Organism: Rattus norvegicus
# Assay: DrugMatrix - Regimen: Daily Repeat
# Type: toxicity, organism-based, Sprague-Dawley
# Design: regimen Daily Repeat, gender Male, age 6-8 weeks
# Conditions: in vivo, po, route oral GAVAGE, vehicle 100 % WATER; for ABSOLUTE BASOPHIL / ABSOLUTE EOSINOPHIL / ABSOLUTE LYMPHOCYTE / ABSOLUTE MONOCYTE / ABSOLUTE SEGMENTED NEUTROPHIL / BASOPHIL / EOSINOPHIL / ERYTHROCYTE COUNT / HEMATOCRIT / HEMOGLOBIN / LEUKOCYTE COUNT / LYMPHOCYTE / MEAN CORPUSCULAR HEMOGLOBIN / MEAN CORPUSCULAR HEMOGLOBIN CONCENTRATION / MEAN CORPUSCULAR VOLUME / MONOCYTE / NEUTROPHIL / NUCLEATED RED BLOOD CELLS / PLATELET COUNT: tissue Blood; for ALANINE AMINOTRANSFERASE / ALBUMIN / ALKALINE PHOSPHATASE / ASPARTATE AMINOTRANSFERASE / BLOOD UREA NITROGEN / CARBON DIOXIDE / CHLORIDE / CHOLESTEROL / CREATINE PHOSPHOKINASE / CREATININE / GLUCOSE / LACTATE DEHYDROGENASE / LIPASE / PHOSPHORUS / POTASSIUM / SODIUM / TOTAL BILIRUBIN / TOTAL PROTEIN / URIC ACID: tissue Plasma
# [1] = 300 mg/kg, 120 h, dose level Low, time 5 day
# [2] = 3000 mg/kg, 72 h, dose level High, time 3 day
# [3] = 3000 mg/kg, 120 h, dose level High, time 5 day
structure (smiles),measurement,setting,value
CC(Cl)(Cl)Cl [TRICHLOROETHANE],ABSOLUTE BASOPHIL,[1],0 CELLS/uL
same,ABSOLUTE EOSINOPHIL,[1],0 CELLS/uL
same,ABSOLUTE LYMPHOCYTE,[1],11569 CELLS/uL
same,ABSOLUTE MONOCYTE,[1],149.67 CELLS/uL
same,ABSOLUTE SEGMENTED NEUTROPHIL,[1],1081.33 CELLS/uL
same,BASOPHIL,[1],0%
same,EOSINOPHIL,[1],0%
same,ERYTHROCYTE COUNT,[1],5.76 x10E6/uL
same,HEMATOCRIT,[1],36.17%
same,HEMOGLOBIN,[1],14.07 G/DL
same,LEUKOCYTE COUNT,[1],12.8 x10E3/uL
same,LYMPHOCYTE,[1],90%
same,MEAN CORPUSCULAR HEMOGLOBIN,[1],24.43 pg
same,MEAN CORPUSCULAR HEMOGLOBIN CONCENTRATION,[1],38.9 G/DL
same,MEAN CORPUSCULAR VOLUME,[1],62.7 fL
same,MONOCYTE,[1],1%
same,NEUTROPHIL,[1],9%
same,NUCLEATED RED BLOOD CELLS,[1],0.33 /100WBC
same,PLATELET COUNT,[1],1070.67 x10E3/uL
same,ALANINE AMINOTRANSFERASE,[1],50.33 u/L
same,ALBUMIN,[1],4.07 G/DL
same,ALKALINE PHOSPHATASE,[1],394 u/L
same,ASPARTATE AMINOTRANSFERASE,[1],95 u/L
same,BLOOD UREA NITROGEN,[1],16.33 mg/dL
same,CARBON DIOXIDE,[1],32.33 mmol/L
same,CHLORIDE,[1],103.33 MEQ/L
same,CHOLESTEROL,[1],65 mg/dL
same,CREATINE PHOSPHOKINASE,[1],400 u/L
same,CREATININE,[1],0.17 mg/dL
same,GLUCOSE,[1],135.67 mg/dL
same,LACTATE DEHYDROGENASE,[1],117.67 u/L
same,LIPASE,[1],10.67 u/L
same,PHOSPHORUS,[1],11.3 mg/dL
same,POTASSIUM,[1],6.41 MEQ/L
same,SODIUM,[1],148.03 MEQ/L
same,TOTAL BILIRUBIN,[1],0.2 mg/dL
same,TOTAL PROTEIN,[1],6.03 G/DL
same,URIC ACID,[1],0.9 mg/dL
same,ABSOLUTE BASOPHIL,[2],0 CELLS/uL
same,ABSOLUTE EOSINOPHIL,[2],0 CELLS/uL
same,ABSOLUTE LYMPHOCYTE,[2],11145.5 CELLS/uL
same,ABSOLUTE MONOCYTE,[2],120.5 CELLS/uL
same,ABSOLUTE SEGMENTED NEUTROPHIL,[2],784 CELLS/uL
same,BASOPHIL,[2],0%
same,EOSINOPHIL,[2],0%
same,ERYTHROCYTE COUNT,[2],6.08 x10E6/uL
same,HEMATOCRIT,[2],38.1%
same,HEMOGLOBIN,[2],14.85 G/DL
same,LEUKOCYTE COUNT,[2],12.05 x10E3/uL
same,LYMPHOCYTE,[2],92.5%
same,MEAN CORPUSCULAR HEMOGLOBIN,[2],24.45 pg
same,MEAN CORPUSCULAR HEMOGLOBIN CONCENTRATION,[2],39 G/DL
same,MEAN CORPUSCULAR VOLUME,[2],62.65 fL
same,MONOCYTE,[2],1%
same,NEUTROPHIL,[2],6.5%
same,NUCLEATED RED BLOOD CELLS,[2],0.5 /100WBC
same,PLATELET COUNT,[2],1361.5 x10E3/uL
same,ALANINE AMINOTRANSFERASE,[2],49.5 u/L
same,ALBUMIN,[2],4.15 G/DL
same,ALKALINE PHOSPHATASE,[2],322 u/L
same,ASPARTATE AMINOTRANSFERASE,[2],87.5 u/L
same,BLOOD UREA NITROGEN,[2],11.5 mg/dL
same,CARBON DIOXIDE,[2],33 mmol/L
same,CHLORIDE,[2],102.5 MEQ/L
same,CHOLESTEROL,[2],91.5 mg/dL
same,CREATINE PHOSPHOKINASE,[2],450 u/L
same,CREATININE,[2],0.17 mg/dL
same,GLUCOSE,[2],131 mg/dL
same,LACTATE DEHYDROGENASE,[2],260 u/L
same,LIPASE,[2],9.5 u/L
same,PHOSPHORUS,[2],9.5 mg/dL
same,POTASSIUM,[2],5.71 MEQ/L
same,SODIUM,[2],148.15 MEQ/L
same,TOTAL BILIRUBIN,[2],0.1 mg/dL
same,TOTAL PROTEIN,[2],6.35 G/DL
same,URIC ACID,[2],0.5 mg/dL
same,ABSOLUTE BASOPHIL,[3],0 CELLS/uL
same,ABSOLUTE EOSINOPHIL,[3],0 CELLS/uL
same,ABSOLUTE LYMPHOCYTE,[3],9273 CELLS/uL
same,ABSOLUTE MONOCYTE,[3],138.67 CELLS/uL
same,ABSOLUTE SEGMENTED NEUTROPHIL,[3],1121.67 CELLS/uL
same,BASOPHIL,[3],0%
same,EOSINOPHIL,[3],0%
same,ERYTHROCYTE COUNT,[3],5.95 x10E6/uL
same,HEMATOCRIT,[3],36.77%
same,HEMOGLOBIN,[3],13.97 G/DL
same,LEUKOCYTE COUNT,[3],10.53 x10E3/uL
same,LYMPHOCYTE,[3],87.67%
same,MEAN CORPUSCULAR HEMOGLOBIN,[3],23.57 pg
same,MEAN CORPUSCULAR HEMOGLOBIN CONCENTRATION,[3],37.97 G/DL
same,MEAN CORPUSCULAR VOLUME,[3],62 fL
same,MONOCYTE,[3],1.33%
same,NEUTROPHIL,[3],11%
same,NUCLEATED RED BLOOD CELLS,[3],0 /100WBC
same,PLATELET COUNT,[3],1168 x10E3/uL
same,ALANINE AMINOTRANSFERASE,[3],46.33 u/L
same,ALBUMIN,[3],4.03 G/DL
same,ALKALINE PHOSPHATASE,[3],272 u/L
same,ASPARTATE AMINOTRANSFERASE,[3],71 u/L
same,BLOOD UREA NITROGEN,[3],14.33 mg/dL
same,CARBON DIOXIDE,[3],30.67 mmol/L
same,CHLORIDE,[3],100.33 MEQ/L
same,CHOLESTEROL,[3],74 mg/dL
same,CREATINE PHOSPHOKINASE,[3],156.67 u/L
same,CREATININE,[3],0.17 mg/dL
same,GLUCOSE,[3],120.67 mg/dL
same,LACTATE DEHYDROGENASE,[3],107 u/L
same,LIPASE,[3],10.33 u/L
same,PHOSPHORUS,[3],12.33 mg/dL
same,POTASSIUM,[3],6.12 MEQ/L
same,SODIUM,[3],147.17 MEQ/L
same,TOTAL BILIRUBIN,[3],0.13 mg/dL
same,TOTAL PROTEIN,[3],6.2 G/DL
same,URIC ACID,[3],1.1 mg/dL
